Reference: patent US10968218B2, “Tetrahydropyridopyrimidines for the treatment and prophylaxis of hepatitis B virus infection” (Hoffmann-La Roche Inc., priority 2016, dated 2021)

Tests used:
HBV DNA = HBV DNA assay (real-time qPCR/TaqMan of extracellular HBV DNA, HepG2.2.15 cells); type: cell-based; details: Hepatitis B virus, 144 h; Anti HBV DNA production activity in HepG2.2.15 cells, supernatant, six days after treatment
Description: (§1) HepG2.2.15 cells (Acs et al. Proc Natl Acad Sci USA, 84, (1987), 4641-4), a constitutively HBV-expressing cell line were cultured in DMEM+Glutamax-I medium (Invitrogen, Carlsbad, Calif., USA), supplemented with 10% fetal bovine serum (Invitrogen) and G418 (Invitrogen) at a final concentration of 200 mg/L and maintained in 5% CO2 at 37° C.
The assay employs real-time qPCR (TaqMan) to directly measure extracellular HBV DNA copy number in the cell supernatant. HepG2.2.15 cells were plated in 96-well microtiter plates before treatment with complete medium (DMEM, Glutamax, 10% FBS, 1% Penicillin/Streptomycin, 250 μg/mL Genetycin, final DMSO concentration is 1%). Only the interior wells were utilized to reduce “edge effects” observed during cell culture, the exterior wells were filled with complete medium to help minimize sample evaporation. The HepG2.2.15 cells were treated 1 h later with various concentrations of a test compound in duplicate (top concentration used at 5 μM, 2 μM or 0.5 μM according to the HBsAg IC50 observed, with 1/3 successive dilutions (total of 10 dilutions). Six days following the initial administration of the test compound, the cell culture supernatant was collected; DNA extraction was performed by automated system (Magnapure) and then used in a real-time qPCR/TaqMan assay to determine HBV DNA copy numbers. Antiviral activity was calculated from the reduction in HBV DNA levels (IC50). The compounds of the present invention were tested for their capacity to inhibit HBV DNA as described herein.

HBsAg = HBsAg assay (CLIA of secreted HBsAg in HepG2.2.15 culture supernatant); type: cell-based, HBV; details: Hepatitis B virus
Description: as §1
HepG2.2.15 cells were seeded in duplicate into white, 96-well plates at 1.5×10^4 cells/well. The cells were treated with a three-fold serial dilution series of the compounds in DMSO. The final DMSO concentration in all wells was 1% and DMSO was used as no drug control.
The HBsAg chemiluminescence immunoassay (CLIA) kit (Autobio Diagnostics Co., Zhengzhou, China, Catalog number: CL0310-2) was used to measure the levels of secreted HBV antigens semi-quantitatively. For the detection 50 μL/well culture supernatant was used and HBsAg was quantified using HBsAg chemiluminescence immunoassay (CLIA) kit (Autobio Diagnostics Co., Zhengzhou, China, Catalog number: CL0310-2), 50 μL of the supernatant was transferred to the CLIA assay plate and 50 μL of enzyme conjugate reagent was added into each well. The plates were sealed and gently agitated for 1 hour at room temperature. The supernatant-enzyme-mixture was discarded and wells were washed 6 times with 300 μL of PBS. The residual liquid was removed by plating the CLIA plate right side down on absorbent tissue paper. 25 μL of substrates A and B were added to each well. Luminance was measured using a luminometer (Mithras LB 940 Multimode Microplate Reader) after 10 minutes incubation. Dose-response curves were generated and the IC50 value was extrapolated by using the E-WorkBook Suite (ID Business Solutions Ltd., Guildford, UK). The IC50 was defined as the compound concentration at which HBsAg secretion was reduced by 50% compared to the no drug control.
The compounds according to formula I were tested for their capacity to inhibit HBsAg as described herein.

Structure (SMILES) | IC50 (HBV DNA) [nM] | IC50 (HBsAg) [nM]
COc1cc(F)nc(N2CCc3nc(-c4ncn[nH]4)ncc3C2C)c1 (stereo not drawn) [Example 43, 6-(6-Fluoro-4-methoxy-2-pyridyl)-5-methyl-2-(1H-1,2,4-triazol-5-yl)-7,8-dihydro-5H-pyrido[4,3-d]pyrimidine] | 1.7 | 8
COc1cc(F)nc(N2CCc3nc(-c4ncc[nH]4)ncc3C2C)c1 (stereo not drawn) [Example 26, 6-(6-Fluoro-4-methoxy-2-pyridyl)-2-(1H-imidazol-2-yl)-5-methyl-7,8-dihydro-5H-pyrido[4,3-d]pyrimidine] | 5.7 | 31
CC1c2cnc(-c3cscn3)nc2CCN1c1cc(N2CCOCC2)cc(F)n1 (stereo not drawn) [Example 13, 4-[2-fluoro-6-(5-methyl-2-thiazol-4-yl-7,8-dihydro-5H-pyrido[4,3-d]pyrimidin-6-yl)-4-pyridyl]morpholine] | – | 33
COc1cc(F)nc(N2CCc3nc(-c4nccs4)ncc3C2C)c1 (stereo not drawn) [Example 6, 2-[6-(6-Fluoro-4-methoxy-2-pyridyl)-5-methyl-7,8-dihydro-5H-pyrido[4,3-d]pyrimidin-2-yl]thiazole] | – | 118
CC1c2cnc(-c3cscn3)nc2CCN1c1cc(F)cc(OCC2CC2)n1 (stereo not drawn) [Example 33, 4-[6-[6-(cyclopropylmethoxy)-4-fluoro-2-pyridyl]-5-methyl-7,8-dihydro-5H-pyrido[4,3-d]pyrimidin-2-yl]thiazole] | – | 212
CC1c2cnc(-c3cscn3)nc2CCN1c1cc(N2CCNC(=O)C2)cc(F)n1 (stereo not drawn) [Example 29, 4-[2-fluoro-6-(5-methyl-2-thiazol-4-yl-7,8-dihydro-5H-pyrido[4,3-d]pyrimidin-6-yl)-4-pyridyl]piperazin-2-one] | – | 34
CC1c2cnc(-c3cscn3)nc2CCN1c1cc(F)nc(N2CCN(S(C)(=O)=O)CC2)c1 (stereo not drawn) [Example 20, 4-[6-[2-fluoro-6-(4-methylsulfonylpiperazin-1-yl)-4-pyridyl]-5-methyl-7,8-dihydro-5H-pyrido[4,3-d]pyrimidin-2-yl]thiazole] | 20.3 | 13
CC1c2cnc(-c3cscn3)nc2CCN1c1cc(F)nc(OCC2CC2)c1 (stereo not drawn) [Example 31, 4-[6-[2-(cyclopropylmethoxy)-6-fluoro-4-pyridyl]-5-methyl-7,8-dihydro-5H-pyrido[4,3-d]pyrimidin-2-yl]thiazole] | – | 117
COc1cc(F)nc(N2CCc3nc(-c4nccn4C)ncc3C2C)c1 (stereo not drawn) [Example 7, 6-(6-Fluoro-4-methoxy-2-pyridyl)-5-methyl-2-(1-methylimidazol-2-yl)-7,8-dihydro-5H-pyrido[4,3-d]pyrimidine] | – | 16700
COc1cc(F)nc(N2CCc3nc(-c4cc[nH]n4)ncc3C2C)c1 (stereo not drawn) [Example 27, 6-(6-Fluoro-4-methoxy-2-pyridyl)-5-methyl-2-(1H-pyrazol-3-yl)-7,8-dihydro-5H-pyrido[4,3-d]pyrimidine] | – | 230
COc1cc(F)nc(N2CCc3nc(-c4cscn4)ncc3C2C)c1 (stereo not drawn) [Example 5, 4-[6-(6-Fluoro-4-methoxy-2-pyridyl)-5-methyl-7,8-dihydro-5H-pyrido[4,3-d]pyrimidin-2-yl]thiazole] | 8.7 | 23
CC1c2cnc(-c3cscn3)nc2CCN1c1cc(F)nc(N2CCCC2)c1 (stereo not drawn) [Example 17, 4-[6-(2-fluoro-6-pyrrolidin-1-yl-4-pyridyl)-5-methyl-7,8-dihydro-5H-pyrido[4,3-d]pyrimidin-2-yl]thiazole] | – | 17
COc1cc(F)nc(N2CCc3nc(-c4ncco4)ncc3C2C)c1 (stereo not drawn) [Example 4, 2-[6-(6-Fluoro-4-methoxy-2-pyridyl)-5-methyl-7,8-dihydro-5H-pyrido[4,3-d]pyrimidin-2-yl]oxazole] | – | 316
CC1c2cnc(-c3cscn3)nc2CCN1c1cc(F)cc(N2CCCC2)n1 (stereo not drawn) [Example 19, 4-[6-(4-fluoro-6-pyrrolidin-1-yl-2-pyridyl)-5-methyl-7,8-dihydro-5H-pyrido[4,3-d]pyrimidin-2-yl]thiazole] | – | 175
CC1c2cnc(-c3cscn3)nc2CCN1c1cc(F)nc(OCC2CCOC2)c1 (stereo not drawn) [Example 37, 4-[6-[2-fluoro-6-(tetrahydrofuran-3-ylmethoxy)-4-pyridyl]-5-methyl-7,8-dihydro-5H-pyrido[4,3-d]pyrimidin-2-yl]thiazole] | – | 70
COc1cc(N2CCc3nc(-c4nccn4C)ncc3C2)cc(F)c1F [Example 1, 6-(3,4-Difluoro-5-methoxy-phenyl)-2-(1-methylimidazol-2-yl)-7,8-dihydro-5H-pyrido[4,3-d]pyrimidine] | – | 1160
CC1c2cnc(-c3cscn3)nc2CCN1c1cc(F)nc(N2CCOCC2)c1 (stereo not drawn) [Example 12, 4-[6-fluoro-4-(5-methyl-2-thiazol-4-yl-7,8-dihydro-5H-pyrido[4,3-d]pyrimidin-6-yl)-2-pyridyl]morpholine] | – | 36
